Measured values published in publication PMC11342128, “Gold(I) and gold(III) carbene complexes from the marine betaine norzooanemonin: inhibition of thioredoxin reductase, antiproliferative and antimicrobial activity” (RSC Medicinal Chemistry, 2024).

Assays:
Assay type in all cases: cell-based
A549 cells = experiment: Gold cellular uptake, HRCS-AAS; settings: 2 μM, Fig. 5
Procedure: The amount of potential drug accumulated in the cell is often described as one of the critical factors for further biological effect. The significant difference in antiproliferative effect observed for dicarbene complexes 5a–c may be directly related to the amount of gold ions taken up by the treated cells. The cellular accumulation of these complexes was evaluated in the most sensitive cancer cell line A549. […] The gold content was further quantified using high-resolution continuum source atomic absorption spectroscopy (HRCS-AAS).
S2.4. Cellular uptake and metal quantification studies in A549 cells
Cellular uptake studies in A549 cells
For cellular accumulation studies, A549 lung carcinoma cells were seeded in 75 cm2 cell culture flasks, incubated with 10 ml DMEM/10% FCS cell culture medium at 37 °C in a 5% CO2 humidified atmosphere until they reached a confluence of 75-80%. The cells were treated with DMEM containing selected test compounds 3a and 3c dissolved in DMF (final DMF concentration: 0.1%; final test compound concentration: 2 μM). After 6 and 24 h of exposure, cells were isolated by removing the media followed by trypsinization. The trypsinized cells were washed with 9 ml PBS buffer (pH 7.4), scraped, and isolated by centrifugation (5 min, 3500 rpm). The obtained cell pellets were stored at -20 °C for further use. All experiments were carried out in triplicate.
Metal quantification in cell lysates by HRCS-AAS
Dry cell pellets were diluted with 400 μl of Milli-Q® water and lysed for 30 min in an ultrasonic bath (240 W, […]). For protein quantification. 20 μl of each sample was added to 200 μl of Bradford reagent (25 mg Serva Blue G (Sigma Aldrich) in 25 ml Ethanol 96%, 25 ml Milli-Q® water and 50 ml H3PO4 86%, stored at -20 °C and freshly diluted 1+4 with Milli-Q® water prior to use) and incubated on a 96-well plate while shaking at room temperature for 30 min and measured by a Perkin Elmer Victor X4 plate reader at a wavelength of 595 nm. The measurements were performed in duplicate, and the mean was used to calculate the protein content. For a standard calibration curve, bovine serum albumin (Sigma Aldrich) was used in graded concentrations.
The gold quantification was performed using a high-resolution continuum source atomic absorption spectrometer ContrAA® 700 (Analytik Jena AG). A pure sample of the respective complex 5c was used as standard, and calibration was done in a matrix-matched manner (meaning all samples and standards were adjusted to a protein concentration of 1 mg/ml by dilution with Milli-Q® water). The calibration and samples were measured in duplicate. The final cellular gold concentrations were calculated from data obtained in three independent experiments and are expressed as pmol of metal per mg of cell protein. Sample preparation: Triton-X 100 (1%, 20 μl) and ascorbic acid (1%, 20 μl) were added to each calibration standard or probe (200 μl). A volume of 20 μl was injected into a coated standard graphite tube (Analytik Jena AG) and thermally processed as previously described.[10] The gold amount was analyzed at a wavelength of 242.79 nm.

[1] = test system: Klebsiella pneumoniae DSM111678; experiment: Antibacterial activity (MIC, curve fitting); settings: Table S12; ± standard error of the mean
Procedure: (§1) The antibacterial activity of all gold complexes was assessed against six pathogenic bacterial strains, including two Gram-positive species, i.e. Enterococcus faecium and methicillin-resistant Staphylococcus aureus (MRSA), and four Gram-negative species, i.e. Acinetobacter baumannii, Escherichia coli, Klebsiella pneumoniae, and Pseudomonas aeruginosa. Minimum inhibitory concentrations (MICs) were determined using a curve-fitting technique.
(§2) S2.1. Antibacterial Studies
(§3) Bacterial cultures were prepared by overnight aerobic incubation at 37 °C. Gram-negative strains were cultivated in Müller Hinton broth supplemented with 1% glucose at pH 7.2, while Gram-positive strains were grown in Trypticase soy yeast extract medium (TSY) with a composition of 30 g/l trypticase soy broth, 3 g/l yeast extract, and pH 7.2. The cultures were adjusted to an OD600 of 0.001, resulting in a final starting OD600 of 0.0005 for the subsequent tests. For testing, 25 μL of the prepared culture was combined with 25 μL of serially diluted test compounds in 384 well plates, following established protocols for different strains. Screening was performed at compound concentrations of 0.5, 5, and 50 µM, and for selected compounds, growth inhibition curves were recorded using DMSO stock solutions […]
(§4) Positive control compounds, namely linezolid (for MRSA strains), ciprofloxacin (for E. faecium and E. coli), and amikacin (for P. aeruginosa), were included. The maximum DMSO concentration in the assay […]
(§5) After an 18-hour incubation at 37 °C under moist conditions, the optical density at 600 nm was measured using a Fusion Universal Microplate Analyser (Perkin–Elmer, Waltham, USA). The minimum inhibitory concentration (MIC) values, representing the […]
(§6) fitting with Sigma Plot. The bacterial strains used included Gram-negative strains: Escherichia coli (DSM 1116), A. baumannii (DSM30007), K. pneumoniae (DSM111678), and Pseudomonas aeruginosa PA7 (DSM 24068); and Gram-positive strains: E. faecium (DSM20477) and Staphylococcus aureus MRSA

[2] = test system: Pseudomonas aeruginosa DSM 24068; experiment: Antibacterial activity (MIC, curve fitting); settings: Table S12; ± standard error of the mean
Procedure: as §1, §2, §3, §4, §5, §6

[3] = test system: Escherichia coli DSM 1116; experiment: Antibacterial activity (MIC, curve fitting); settings: Table S12; ± standard error of the mean
Procedure: as §1, §2, §3, §4, §5, §6

[4] = test system: Enterococcus faecium DSM20477; experiment: Antibacterial activity (MIC, curve fitting); settings: Table S12; ± standard error of the mean
Procedure: as §1, §2, §3, §4, §5, §6

[5] = test system: methicillin-resistant Staphylococcus aureus DSM 11822; experiment: Antibacterial activity (MIC, curve fitting); settings: Table S12; ± standard error of the mean
Procedure: as §1, §2, §3, §4, §5, §6

[6] = test system: Acinetobacter baumannii DSM30007; experiment: Antibacterial activity (MIC, curve fitting); settings: Table S12; ± standard error of the mean
Procedure: as §1, §2, §3, §4, §5, §6

Row | SMILES | Gold uptake (cellular gold content) (A549 cells; 6 h, 37 °C) | MIC, K. pneumoniae [1] | MIC, P. aeruginosa [2] | MIC, E. coli [3] | MIC, E. faecium [4] | MIC, MRSA [5] | MIC, A. baumannii [6] | Gold uptake (cellular gold content) (A549 cells; 24 h compared with 6 h)
1 | Cn1cc(C(=O)O)[n+](C)[c]1[Au-]([Cl])([Cl])[c]1n(C)cc(C(=O)O)[n+]1C.[Cl-] [5a] | low gold uptake | > 100 µM | > 100 µM | > 100 µM | > 100 µM | > 100 µM | > 100 µM | 
2 | COC(=O)c1cn(C)[c]([Au-]([Cl])([Cl])[c]2n(C)cc(C(=O)OC)[n+]2C)[n+]1C.O=S(=O)([O-])C(F)(F)F [5b] | higher degree of gold uptake | > 100 µM | > 100 µM | > 100 µM | > 100 µM | > 100 µM | > 100 µM | decreased significantly
3 | CCOC(=O)c1cn(C)[c]([Au-]([Cl])([Cl])[c]2n(C)cc(C(=O)OCC)[n+]2C)[n+]1C.F[B-](F)(F)F [5c] | higher degree of gold uptake | > 100 µM | > 100 µM | > 100 µM | > 100 µM | 23.15 ± 0 µM | > 100 µM | decreased significantly
